Reference: patent publication US10227331B2 (priority 2015, dated 2019)

Assays:
[1] = test system: Escherichia coli expressing NDM-1 (CLB30005, CLB30016); format: cell-based; conditions: with imipenem 1 μg/ml, 95% inhibition of bacterial growth; for Escherichia coli MITC95: NDM-1 (CLB30016)
In short: (§1)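 Colonies from overnight 35 °C blood-agar cultures were suspended in saline, diluted 1:100 into 1.1× CAMHB and exposed to test compound with or without imipenem at 1 μg/ml. After 22–24 h at 35 °C, absorbance was read to find the concentration restoring imipenem susceptibility.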

[2] = test system: Serratia marcescens expressing IMP-1 (CL5741); format: cell-based; conditions: with imipenem 1 μg/ml, 95% inhibition of bacterial growth; for Serratia marcescens MITC95: IMP-1 (CL5741)
In short: as §1

[3] = test system: Klebsiella pneumoniae expressing VIM-1 (IHMA599644); format: cell-based; conditions: with imipenem 1 μg/ml, 95% inhibition of bacterial growth; for Klebsiella pneumoniae MITC95: VIM-1 (IHMA599644)
In short: as §1

VIM-1 = VIM-1 (Pseudomonas aeruginosa (strain ATCC 15692 / DSM 22644 / CIP 104116 / JCM 14847 / LMG 12228 / 1C / PRS 101 / PAO1), UniProt A0A0F7KYQ8); test: biochemical; conditions: CCF2-FA substrate, 2 hours at 25° C
In short: (§2)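 Inhibitor was mixed with the metallo-β-lactamase and CCF2-FA. After 2 hours at 25° C, fluorescence of the coumarin–fluorescein cephalosporin substrate was read. IC50 was calculated with a 4-parameter fit.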

[4] = test system: P. aeruginosa expressing IMP-1, efflux− (MB9799); test: Efflux: concentration of MBL inhibitor which restores susceptibility to imipenem; format: cell-based, Pseudomonas aeruginosa; conditions: imipenem at 2 μg/mL, in the presence of a class A, C, D serine β-lactamase inhibitor closely related to relebactam
From the text: (§3) The strain background is Pseudomonas aeruginosa PAO1.

[5] = test system: P. aeruginosa expressing IMP-1, efflux+ (MB9798); format: cell-based, Pseudomonas aeruginosa; conditions: for P. aeruginosa expressing IMP-1, efflux+ (MB9798) MITC95: imipenem at 2 μg/mL, in the presence of a class A, C, D serine β-lactamase inhibitor closely related to relebactam; for Efflux ratio: ratio MITC95 PA_9798/MITC95 PA_9799
From the text: as §3

IMP-1 = IMP-1 (Serratia marcescens, UniProt P52699); test: biochemical; format: biochemical; conditions: CCF2-FA substrate, 2 hours at 25° C; read-out: IMP-1 IC50
In short: as §2

NDM-1 = NDM-1 (Klebsiella pneumoniae, UniProt C7C422); test: biochemical; format: biochemical; conditions: CCF2-FA substrate, 2 hours at 25° C; read-out: NDM-1 IC50
In short: as §2

IMP-1, sequence (P52699 whole entry, looked up, species assumed): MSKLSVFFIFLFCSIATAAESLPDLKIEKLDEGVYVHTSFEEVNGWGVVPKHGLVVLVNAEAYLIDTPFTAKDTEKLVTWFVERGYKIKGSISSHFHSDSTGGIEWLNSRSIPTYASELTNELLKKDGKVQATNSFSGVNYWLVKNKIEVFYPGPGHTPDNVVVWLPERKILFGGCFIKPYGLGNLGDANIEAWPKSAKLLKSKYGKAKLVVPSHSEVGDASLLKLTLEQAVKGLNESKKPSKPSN
NDM-1, sequence (C7C422 whole entry, looked up, species assumed): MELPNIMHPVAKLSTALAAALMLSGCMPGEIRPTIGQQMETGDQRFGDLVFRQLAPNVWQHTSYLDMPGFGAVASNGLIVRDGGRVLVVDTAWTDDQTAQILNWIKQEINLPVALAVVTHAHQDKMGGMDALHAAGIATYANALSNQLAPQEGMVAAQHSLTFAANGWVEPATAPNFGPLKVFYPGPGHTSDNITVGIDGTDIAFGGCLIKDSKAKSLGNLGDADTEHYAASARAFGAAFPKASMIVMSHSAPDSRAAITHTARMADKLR

| Compound | Escherichia coli MITC95 [1] [µM] | Serratia marcescens MITC95 [2] [µM] | Klebsiella pneumoniae MITC95 [3] [µM] | IC50 (VIM-1) [nM] | P. aeruginosa expressing IMP-1, efflux− (MB9799) MITC95 [4] [µM] | P. aeruginosa expressing IMP-1, efflux+ (MB9798) MITC95 [5] [µM] | Efflux ratio [5] | IC50 (IMP-1) [nM] | IC50 (NDM-1) [nM] | Escherichia coli expressing NDM-1 (CLB30016) MITC95 [1] [µM] | Serratia marcescens expressing IMP-1 (CL5741) MITC95 [2] [µM] | Klebsiella pneumoniae expressing VIM-1 (IHMA599644) MITC95 [3] [µM] |
| --- | --- | --- | --- | --- | --- | --- | --- | --- | --- | --- | --- | --- |
| NCCCNC(=O)c1cccc(-c2ccc(S(=O)(=O)CCN)c(S(N)(=O)=O)c2-c2nn[nH]n2)c1N [Example 375, 2-Amino-4′-((2-aminoethyl)sulfonyl)-N-(3-aminopropyl)-3′-sulfamoyl-2′-(2H-tetrazol-5-yl)-[1,1′-biphenyl]-3-carboxamide] | 1.563 | 1.563 | 1.563 | 0.53 | 0.7813 | 1.563 | 2.00 | 1.71 | 2.11 |  |  |  |
| NCCS(=O)(=O)c1ccc(-c2cccc(NC(=O)[C@H](N)CO)c2)c(-c2nn[nH]n2)c1S(N)(=O)=O [compound 334, (R)-2-amino-N-(4′-((2-aminoethyl)sulfonyl)-3′-sulfamoyl-2′-(2H-tetrazol-5-yl)-[1,1′-biphenyl]-3-yl)-3-hydroxypropanamide] | 1.563 | 3.125 | 3.125 | 0.504 | 1.563 | 12.5 | 8.00 | 4.54 | 2.53 |  |  |  |
| NS(=O)(=O)c1c(S(=O)(=O)C2CNC2)ccc(-c2cccc3sc(O)nc23)c1-c1nn[nH]n1 [Example 309, 6-(azetidin-3-ylsulfonyl)-3-(2-hydroxybenzo[d]thiazol-4-yl)-2-(2H-tetrazol-5-yl)benzenesulfonamide] | 0.7813 | 3.125 | 3.125 | 0.145 | 1.563 | 3.125 | 2.00 | 0.256 | 0.0885 |  |  |  |
| NS(=O)(=O)c1c(S(=O)(=O)C2CNC2)ccc(-c2csc(N3CCCC3)n2)c1-c1nnn[nH]1.O=C(O)C(F)(F)F [Example 120, 3-((4-(2-(pyrrolidin-1-yl)thiazol-4-yl)-2-sulfamoyl-3-(1H-tetrazol-5-yl)phenyl)sulfonyl)azetidin-1-ium 2,2,2-trifluoroacetate] |  |  |  | 1.42 | 1.563 | 25 | 15.99 | 0.553 | 0.755 | 3.125 | 3.125 | 6.25 |
| Nc1nnc(-c2cccc(-c3ccc(S(=O)(=O)C4CNC4)c(S(N)(=O)=O)c3-c3nnn[nH]3)c2)o1 [Example 344, 3′-(5-Amino-1,3,4-oxadiazol-2-yl)-4-(azetidin-3-ylsulfonyl)-2-(1H-tetrazol-5-yl)-[1,1′-biphenyl]-3-sulfonamide] | 3.125 | 3.125 | 6.25 | 0.268 | 1.563 | 25 | 15.99 | 1.7 | 0.47 |  |  |  |
| NCCS(=O)(=O)c1ccc(-c2cccc3cnccc23)c(-c2nnn[nH]2)c1S(N)(=O)=O.O=C(O)C(F)(F)F [Example 171] |  |  |  | 0.272 | 1.563 | 12.5 | 8.00 | 1.02 | 0.306 | 1.563 | 3.125 | 6.25 |
| Cc1nc(N)ccc1-c1ccc(S(=O)(=O)CCN)c(S(N)(=O)=O)c1-c1nnn[nH]1.O=C(O)C(F)(F)F [Example 170, 2-((4-(6-amino-2-methylpyridin-3-yl)-2-sulfamoyl-3-(1H-tetrazol-5-yl)phenyl)sulfonyl)ethanaminium 2,2,2-trifluoroacetate] |  |  |  | 1.01 | 1.563 | 6.25 | 4.00 | 2.87 | 3.48 | 0.3906 | 0.7813 | 3.125 |
| CSc1ccc(-c2ccc(C3CCNCC3)cc2)c(-c2nnn[nH]2)c1S(N)(=O)=O [Example 234, 4-(Methylthio)-4′-(piperidin-4-yl)-2-(1H-tetrazol-5-yl)-[1,1′-biphenyl]-3-sulfonamide] |  |  |  | 13.9 | 0.7813 | 50 | 64.00 | 4.37 | 15.7 | 3.125 | 3.125 | 12.5 |
| NS(=O)(=O)c1c(S(=O)(=O)C2CCNCC2)ccc(-c2cccc3c2CNC3=O)c1-c1nn[nH]n1 [Example 318, 3-(1-oxoisoindolin-4-yl)-6-(piperidin-4-ylsulfonyl)-2-(2H-tetrazol-5-yl)benzenesulfonamide] | 12.5 | 25 | 12.5 | 0.517 | 6.25 | 25 | 4.00 | 27.1 | 1.95 |  |  |  |
| NCCS(=O)(=O)c1ccc(-c2cccc3nc(C(=O)O)nn23)c(-c2nnn[nH]2)c1S(N)(=O)=O [Example 304, 5-(4-((2-aminoethyl)sulfonyl)-3-sulfamoyl-2-(1H-tetrazol-5-yl)phenyl)-[1,2,4]triazolo [1,5-a]pyridine-2-carb oxylic Acid] | 6.25 | 6.25 | 50 | 0.478 | 12.5 | 25 | 2.00 | 5.36 | 0.214 |  |  |  |
| CCOC(=O)N1CC(S(=O)(=O)c2ccc(-c3cccc4[nH]c(N)nc34)c(-c3nn[nH]n3)c2S(N)(=O)=O)C1 [Example 57, ethyl 3-(4-(2-amino-1H-benzo[d]imidazol-4-yl)-2-sulfamoyl-3-(2H-tetrazol-5-yl)phenylsulfonyl)azetidine-1-carboxylate] |  |  |  | 0.446 | 3.125 | 200 | 64.00 | 1.98 | 0.264 | 6.25 | 6.25 | 12.5 |
| NCCS(=O)(=O)c1ccc(-c2ccccc2N)c(-c2nn[nH]n2)c1S(N)(=O)=O [Example 339, 2′-Amino-4-((2-aminoethyl)sulfonyl)-2-(2H-tetrazol-5-yl)-[1,1′-biphenyl]-3-sulfonamide] | 1.563 | 3.125 | 3.125 | 1.78 | 1.563 | 6.25 | 4.00 | 3.42 | 2.52 |  |  |  |
